From US4902794A, “Triazolo-benzodiazepines” (The Upjohn Company, priority 1983, dated 1990)

Tests used:
mice [1] = experiment: Chimney test; format: in vivo; settings: Mus musculus, ip, intraperitoneal, failure to back up and out of vertical glass cylinder within 30 seconds, read-out: ED50, Chimney test (Ch)
Text: (§1) Sedative effects of 8-chloro-1-(hydroxymethyl)-6-phenyl-4H-s-triazolo[4,3-a][1,4]benzodiazepine (A) are shown by the following tests in mice:
The test determines the ability of mice to back up and out of a vertical glass cylinder within 30 seconds. At the effective dosage, 50% of the mice failed doing it.

mice [2] = experiment: Dish test; format: in vivo; settings: Mus musculus, ip, intraperitoneal, remaining in the dish for more than 3 minutes, read-out: ED50, Dish test (D)
Description: as §1
Dish test: Mice in Petri dishes (10 cm. diameter, 5 cm. higher, partially embedded in wood shavings), climb out in a very short itme, when not treated. Mice remaining in the dish for more than 3 minutes indicates tranquilization. The ED50 equals the dose of test compound at which 50% of the mice remain in the dish. The ED50 (intraperitoneal administration) in this test was 2.0 mg./kg.

mice [3] = experiment: Pedestal test; format: in vivo; settings: Mus musculus, ip, intraperitoneal, stay on the pedestal for more than 1 minute, read-out: ED50, Pedestal test (P)
Description: as §1
Pedestal test: The untreated mouse leaves the pedestal in less than a minute to climb back to the floor of the standard mouse box. Tranquilized mice will stay on the pedestal for more than 1 minute.

mice [4] = experiment: Nicotine antagonism test; format: in vivo; settings: Mus musculus, ip, intraperitoneal, nicotine salicylate 2 mg./kg. thirty minutes later
Description: as §1
Nicotine antagonism test: Mice in a group of 6 are injected with the test compound-8-chloro-1-(hydroxymethyl)-6phenyl-4H-s-triazolo[4,3-a][1,4]benzodiazepine. Thirty minutes later the mice including control (untreated) mice are injected with nicotine salicylate (2 mg./kg.). The control mice show overstimulation, i.e., (1) running convulsions followed by (2) tonic extensor fits; followed by (3) death. […] (ED50) was necessary.

[5] = LD50 (lethal dose) in mice; settings: mouse, in vivo
[6] = read-out: ED50, Nicotine antagonism (3) test (Ni): protection of 50% of the mice against death

Row | SMILES | ED50 (mice [1]) | ED50 (mice [2]) | ED50 (mice [3]) | ED50 (mice [4]; [6]) | LD50 [5] | ED50 (mice [4]; read-out: ED50, Nicotine antagonism (2) test: dosage protecting 50% of the mice against tonic extensor fits)
1 | O=C(O)CCC(=O)OCc1nnc2n1-c1ccc(Cl)cc1C(c1ccccc1Cl)=NC2 [D, Hydrogensuccinate ester of 8-chloro-1-(hydroxymethyl)-6-(o-chlorophenyl)-4H-s-triazolo[4,3-a][1,4]benzodiazepine] | 0.125 mg/kg | 0.125 mg/kg | 0.2 mg/kg | 0.09 mg/kg | > 25 mg/kg | 
2 | OCc1nnc2n1-c1ccc(Cl)cc1C(c1ccccc1Cl)=NC2 [C, 8-Chloro-1-(hydroxymethyl)-6-(o-chlorophenyl)-4H-s-triazolo[4,3-a][1,4]benzodiazepine] | 0.04 mg/kg | 0.03 mg/kg | 0.03 mg/kg | 0.032 mg/kg | > 100 mg/kg | 
3 | CCOCc1nnc2n1-c1ccc(Cl)cc1C(c1ccccc1)=NC2 [B, 8-Chloro-1-(ethoxymethyl)-6-phenyl-4H-s-triazolo[4,3-a][1,4]benzodiazepine] | 1 mg/kg | 1.6 mg/kg | 1.4 mg/kg | 0.6 mg/kg | > 100 mg/kg | 
4 | OCc1nnc2n1-c1ccc(Cl)cc1C(c1ccccc1)=NC2 [A, 8-chloro-1-(hydroxymethyl)-6-phenyl-4H-s-triazolo[4,3-a][1,4]benzodiazepine] | 0.63 mg/kg | 2 mg/kg | 1.56 mg/kg | 0.1 mg/kg | > 100 mg/kg | 0.08 mg/kg
